Laboratory results: patent US9375000B2, “Pesticidal arylpyrrolidines” (Bayer Intellectual Property GmbH, priority 2011, dated 2016)

Experiments:
Type in all cases: in vivo
[1] = test system: Tobacco Cutworm (Spodoptera litura) Larvae; assay: Tobacco cutworm (Spodoptera litura) larvae, sweet potato leaf dip test; conditions: dead larvae after 7 days
Protocol: (§1) Unless not mentioned otherwise, the test solutions were prepared as follows:
(§2) Solvent: 3 parts by weight Dimethylformamide
(§3) Emulsifier: 1 part by weight Polyoxyethylene alkyl phenyl ether
(§4) In order to make an appropriate formulation of an active compound, 1 part by weight of the active compound is mixed with the above mentioned amount of solvent and emulsifier and the mixture is diluted with water to a prescribed concentration. Ammonium salt or ammonium salt and penetration enhancer in a dosage of 1000 ppm are added to the desired concentration if necessary.
Leaves of sweet potato were immersed in the test solution at the appropriate concentration, and the leaves were dried in air. The leaves were then placed in a petri dish having a diameter of 9 cm, and ten Spodoptera litura at third instar larvae were released therein. The petri dishes were placed in a temperature-controlled chamber at 25° C. After 2 days and 4 days more sweet potato leaves were added. After 7 days, the number of dead larvae was counted to calculate the insecticidal activity. An insecticidal activity of 100% means that all larvae were killed, whereas an insecticidal activity of 0% means that no larva was killed. In the current test, the results of two petri dishes for each treatment were averaged.

[2] = test system: Larvae of Spodoptera litura; assay: Larvae of Spodoptera litura, method using artificial feeds; conditions: artificial feed, after 7 days
In short: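 Compound formulated in dimethylformamide with polyoxyethylene alkyl phenyl ether emulsifier, water-diluted and poured onto artificial diet. Five 3rd-instar Spodoptera litura larvae per cup, held at 25° C and 50-60% humidity. Mortality after 7 days expressed as pesticidal ratio.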

[3] = test system: Thrips palmi; assay: Thrips palmi spray test (THRIPL); conditions: after 6 days
Protocol: as §1, §2, §3, §4
The compound solutions are sprayed to a cucumber seedling (Cucumis sativus). After drying, the treated plant is placed in a plastic stand. About 100 thrips-eggs (Thrips palmi) on a piece of filter paper are attached to the plant and covered with a cage to keep 100% humidity. The plant is kept in a room at 23° C. After 6 days activity in % is evaluated by feeding damage degree. An insecticidal activity of 100 means that there was no feeding damage, whereas an insecticidal activity of 0% means that there is no difference to the untreated control.

[4] = test system: Two-Spotted Spider Mite (Tetranychus urticae); assay: Two-spotted spider mite (Tetranychus urticae) spray test on kidney bean; conditions: after 7 days
In short: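 Kidney bean plants at the two-leaf stage carried 50-100 adult mites and were sprayed one day later with compound in DMF/polyoxyethylene alkyl phenyl ether diluted in water. Ammonium salt and penetration enhancer at 1000 ppm were added if needed. Acaricidal activity (% mites killed) was scored after 7 days in a greenhouse.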

[5] = test system: Cucurbit Leaf Beetle (Aulacophora femoralis); assay: Cucurbit leaf beetle (Aulacophora femoralis) cucumber leaf dip test; conditions: after 7 days
In short: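 Cucumber leaves dipped in compound formulated with DMF and polyoxyethylene alkyl phenyl ether, diluted in water, with ammonium salt or ammonium salt plus penetration enhancer at 1000 ppm added if necessary; dried leaves placed on sterilized soil with five second-instar larvae. Kept at 25° C; larval mortality counted after 7 days.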

[6] = active compound concentration 20 ppm
[7] = active compound concentration 4 ppm
[8] = active compound concentration 100 ppm

Row | SMILES | insecticidal activity [1, 6] [%] | insecticidal activity (pesticidal ratio) [2, 6] [%] | insecticidal activity (by feeding damage degree) [3, 6] [%] | acaricidal activity [4, 6] [%] | insecticidal activity [5, 7] [%] | insecticidal activity [5, 6] [%] | insecticidal activity (pesticidal ratio) [2, 7] [%] | acaricidal activity [4, 7] [%] | insecticidal activity [1, 7] [%] | insecticidal activity (by feeding damage degree) [3, 8] [%] | acaricidal activity [4, 8] [%]
1 | O=C(NCc1ccc(N2CCC(c3cc(Cl)c(Cl)c(Cl)c3)(C(F)(F)F)C2=O)nc1C(F)(F)F)C1CC1 (stereo not drawn) [B3-16] | 100 | 100 | – | – | – | – | – | – | – | – | –
2 | CCC(=O)NCc1cnc(N2CCC(c3cc(C(F)(F)F)cc(C(F)(F)F)c3)(C(F)(F)F)C2O)cc1C(F)(F)F (stereo not drawn) [A5-24] | – | 100 | 90 | 100 | 100 | 100 | 100 | – | – | – | –
3 | CCC(=O)NCc1ccc(N2CCC(c3cc(Br)cc(Br)c3)(C(F)(F)F)C2O)cc1C(F)(F)F (stereo not drawn) [A1-250] | – | 100 | 90 | 100 | 100 | 100 | 100 | 100 | – | – | –
4 | CCC(=O)NCc1ccc(N2CCC(c3cc(F)c(F)c(F)c3)(C(F)(F)F)C2O)nc1C(F)(F)F (mixture of isomers) [A3-189] | – | – | – | – | – | 100 | – | – | 80 | – | –
5 | CS(=O)(=O)CC(=O)NCc1cnc(N2CCC(c3cc(C(F)(F)F)cc(C(F)(F)F)c3)(C(F)(F)F)C2O)cc1C(F)(F)F (stereo not drawn) [A5-33] | – | 100 | 90 | 98 | 100 | 100 | 100 | – | – | – | –
6 | O=C(NCc1ccc(N2CCC(c3cc(Cl)cc(Cl)c3F)(C(F)(F)F)C2O)nc1C(F)(F)F)C1CC1 (stereo not drawn) [A3-348] | – | – | 90 | – | 100 | – | 100 | 100 | – | – | –
7 | O=C(NCc1cnc(N2CCC(c3cc(Cl)c(Cl)c(Cl)c3)(C(F)(F)F)C2O)nc1C(F)F)C1CC1 (stereo not drawn) [A4-219] | – | – | 90 | – | 100 | – | 100 | 100 | – | – | –
8 | O=C(NCc1ccc(N2CC(c3cc(C(F)(F)F)cc(C(F)(F)F)c3)(C(F)(F)F)CC2=O)nc1Cl)C1CC1 (stereo not drawn) [C1-27] | 100 | 100 | – | – | – | 100 | – | – | – | – | –
9 | O=C(NCc1ccc(N2CCC(c3cc(Cl)c(F)c(Cl)c3F)(C(F)(F)F)C2O)cc1Br)C1CC1 (stereo not drawn) [A1-433] | – | – | 90 | – | 100 | – | 100 | 100 | – | – | –
10 | CCC(=O)NCc1ccc(N2CCC(c3cc(F)cc(C(F)(F)F)c3)(C(F)(F)F)C2O)cc1C(F)(F)F (stereo not drawn) [A1-316] | – | 100 | 90 | 100 | 100 | 100 | 100 | 100 | – | – | –
11 | O=C(NCc1ccc(N2CCC(c3cc(C(F)(F)F)cc(C(F)(F)F)c3)(C(F)(F)F)C2O)cc1Br)C1CC1 (stereo not drawn) [A1-220] | – | – | 90 | – | 100 | – | 100 | 100 | – | – | –
12 | O=C(NCc1ccc(N2CCC(c3cc(C(F)(F)F)cc(C(F)(F)F)c3)(C(F)(F)F)C2O)cc1C(F)(F)F)C1CC1 (mixture of isomers) [A1-60] | – | – | 98 | 100 | 100 | – | 100 | – | – | – | –
13 | CCC(=O)NCc1ccc(N2CCC(c3cc(Cl)c(Cl)c(Cl)c3)(C(F)(F)F)C2O)cc1CC (mixture of isomers) [A1-140] | – | – | – | – | – | – | – | 98 | 100 | – | –
14 | O=C(CC1CC1)NCc1ccc(N2CCC(c3cc(Cl)cc(Cl)c3)(C(F)(F)F)C2O)nc1C(F)(F)F (stereo not drawn) [A3-6] | – | 100 | 90 | 100 | 100 | 100 | 100 | 100 | – | – | –
15 | CC(=O)NCc1ccc(N2CCC(c3cc(C(F)(F)F)cc(C(F)(F)F)c3)(C(F)(F)F)C2O)cc1C(F)(F)F (mixture of isomers) [A1-56] | – | – | 98 | – | 100 | – | 100 | 100 | – | – | –
16 | CCC(=O)NCc1cc(F)c(N2CCC(c3cc(C(F)(F)F)cc(C(F)(F)F)c3)(C(F)(F)F)C2O)nc1Cl (stereo not drawn) [A3-378] | – | – | – | – | 100 | – | 100 | – | – | 90 | 98
17 | CS(=O)(=O)CC(=O)NCc1ccc(N2CCC(c3cc(Cl)cc(Cl)c3)(C(F)(F)F)C2O)nc1C(F)(F)F (stereo not drawn) [A3-11] | – | 100 | 98 | 100 | 100 | 100 | 100 | 100 | – | – | –
18 | O=C(CC(F)(F)F)NCc1cnc(N2CCC(c3cc(C(F)(F)F)cc(C(F)(F)F)c3)(C(F)(F)F)C2O)cc1C(F)(F)F (stereo not drawn) [A5-29] | – | 100 | 90 | 100 | 100 | 100 | 100 | – | – | – | –
19 | O=C(CC1CC1)NCc1ccc(N2CCC(c3cc(Cl)cc(C(F)(F)F)c3)(C(F)(F)F)C2O)nc1C(F)(F)F (mixture of isomers) [A3-270] | – | 100 | 90 | 100 | 100 | 100 | 100 | 100 | – | – | –
20 | O=C(CC(F)(F)F)NCc1cnc(N2CCC(c3cc(Cl)c(Cl)c(Cl)c3)(C(F)(F)F)C2O)nc1C(F)F (stereo not drawn) [A4-221] | – | – | 90 | – | 100 | – | 100 | 100 | – | – | –
21 | O=C(NCc1ccc(N2CCC(c3cc(C(F)(F)F)cc(C(F)(F)F)c3)(C(F)(F)F)C2=O)cc1Cl)C1CC1 (stereo not drawn) [B1-27] | 100 | 100 | – | – | – | – | – | – | – | – | –
22 | CCC(=O)NCc1ccc(N2CCC(c3cc(C(F)(F)F)cc(C(F)(F)F)c3)(C(F)(F)F)C2O)cc1Br (stereo not drawn) [A1-217] | – | – | 90 | – | 100 | – | 100 | 100 | – | – | –
23 | O=C(NCc1ccc(N2CC(c3cc(Cl)c(Cl)c(Cl)c3)(C(F)(F)F)CC2=O)nc1C(F)(F)F)C1CC1 (stereo not drawn) [C3-16] | 100 | 100 | – | – | – | – | – | – | – | – | –
24 | CS(=O)(=O)CC(=O)NCc1ccc(N2CCC(c3cccc(C(F)(F)F)c3)(C(F)(F)F)C2O)nc1C(F)(F)F (racemic) [A3-231] | – | – | 90 | 100 | 100 | 100 | 80 | 100 | – | – | –
25 | O=C(NCc1ccc(N2CC(c3cc(Cl)c(Cl)c(Cl)c3)(C(F)(F)F)CC2O)nc1C(F)(F)F)C1CC1 (stereo not drawn) [A′3-16] | – | – | – | – | – | 100 | – | – | 100 | – | –
26 | CS(=O)(=O)CC(=O)NCc1ccc(N2CCC(c3cc(Cl)cc(C(F)(F)F)c3)(C(F)(F)F)C2O)nc1C(F)(F)F (stereo not drawn) [A3-275] | – | 100 | 98 | 100 | 100 | 100 | 100 | 100 | – | – | –
27 | CCC(=O)NCc1cnc(N2CCC(c3cc(Cl)cc(Cl)c3)(C(F)(F)F)C2O)nc1C(F)(F)F (stereo not drawn) [A4-2] | – | – | – | – | – | – | – | – | 100 | – | –
28 | O=C(NCc1ccc(N2CCC(c3cc(F)c(F)c(F)c3)(C(F)(F)F)C2O)nc1C(F)(F)F)C1CC1 (mixture of isomers) [A3-192] | – | – | – | – | – | 100 | – | – | 100 | – | –
